Test results taken from PubChem BioAssay AID302 (DTP/NCI, 2004).
Several values for one entry are separate records, joined by “and”; a condition that tells them apart may be missing. Equal values may be shown once. Inconclusive results and toxic doses are left out. Rule for the calls: active = survival T/C of 150% or more; inactive = T/C below 125% in these data.

System: BALB/c mice, Madison 109 lung carcinoma i.m., survival
Assay: NCI In Vivo Anticancer Drug Screen. Data for tumor model Madison 109 Lung Carcinoma (intramuscular) in BALB/CM mice
Details: endpoint: median survival time, higher = longer survival
Method: The antitumor activity of compounds was measured in mice bearing transplantable tumors. Survival or tumor size were measured and the results are expressed as the measurement made in the treated group (T) divided by the measurement made in the vehicle treated control group (C). The tumor model used in this assay is Madison 109 Lung Carcinoma (intramuscular) in BALB/CM mice

[1] = dose: 3.12 mg/kg/injection, schedule: Q01DX009 (ip), vehicle: saline with Tween-80
[2] = dose: 6.25 mg/kg/injection, schedule: Q01DX009 (ip), vehicle: saline with Tween-80
[3] = dose: 12.5 mg/kg/injection, schedule: Q01DX009 (ip), vehicle: saline with Tween-80
[4] = dose: 50.0 mg/kg/injection, schedule: Q01DX009 (ip), vehicle: saline with Tween-80
[5] = dose: 100.0 mg/kg/injection, schedule: Q01DX009 (ip), vehicle: saline with Tween-80
[6] = dose: 200.0 mg/kg/injection, schedule: Q01DX009 (ip), vehicle: saline with Tween-80
[7] = dose: 10.0 mg/kg/injection, schedule: Q01DX009 (ip), vehicle: saline with Tween-80
[8] = dose: 20.0 mg/kg/injection, schedule: Q01DX009 (ip), vehicle: saline with Tween-80

Measured: T/C

CN(CO)c1nc(N(C)CO)nc(N(C)CO)n1
inactive: dose: 1.56 mg/kg/injection, schedule: Q01DX009 (ip), vehicle: saline with Tween-80 94 % of control and 101 % of control | [1] 100 % of control and 112 % of control | [2] 100 % of control and 120 % of control | [3] 107 % of control and 114 % of control | dose: 25.0 mg/kg/injection, schedule: Q01DX009 (ip), vehicle: saline with Tween-80 104 % of control and 108 % of control | [4] 120 % of control

CNNCc1ccc(C(=O)NC(C)C)cc1
inactive: dose: 25.0 mg/kg/injection, schedule: Q01DX009 (ip), vehicle: saline 116 % of control | dose: 100.0 mg/kg/injection, schedule: Q01DX009 (ip), vehicle: saline 114 % of control

ClC(Cl)=C(Cl)Cl
inactive: [4] 119 % of control | [5] 113 % of control | [6] 107 % of control

O=C1C2(Cl)C3(Cl)C4(Cl)C(Cl)(Cl)C5(Cl)[C@]3(Cl)C1(Cl)[C@]5(Cl)C24Cl (stereo not given in full)
inactive: [1] 112 % of control | [2] 118 % of control | [3] 121 % of control

COc1cccc2c1C(=O)c1c(O)c3c(c(O)c1C2=O)CC(O)(C(=O)CO)CC3OC1CC(N)C(O)C(C)O1 (stereo not given)
inactive: [7] 100 % of control | [8] 108 % of control

COC1=C(N)C(=O)c2nc(-c3nc(C(=O)O)c(C)c(-c4ccc(OC)c(OC)c4O)c3N)ccc2C1=O
inactive: dose: 0.01 mg/kg/injection, schedule: Q01DX009 (ip), vehicle: saline with Tween-80 95 % of control | dose: 0.02 mg/kg/injection, schedule: Q01DX009 (ip), vehicle: saline with Tween-80 95 % of control | dose: 0.04 mg/kg/injection, schedule: Q01DX009 (ip), vehicle: saline with Tween-80 92 % of control | dose: 0.16 mg/kg/injection, schedule: Q01DX009 (ip), vehicle: saline with Tween-80 93 % of control

CCOC(OCC)C(=O)OCC(=O)[C@]1(O)Cc2c(O)c3c(c(O)c2[C@@H](OC2CC(N)C(O)C(C)O2)C1)C(=O)c1c(OC)cccc1C3=O (stereo not given in full)
inactive: dose: 0.12 mg/kg/injection, schedule: Q01DX009 (ip), vehicle: water 115 % of control | dose: 0.25 mg/kg/injection, schedule: Q01DX009 (ip), vehicle: water 124 % of control | dose: 0.5 mg/kg/injection, schedule: Q01DX009 (ip), vehicle: water 118 % of control

O=[N+]([O-])c1ccc(Cl)c([N+](=O)[O-])c1
inactive: dose: 5.0 mg/kg/injection, schedule: Q01DX009 (ip), vehicle: saline with Tween-80 102 % of control | dose: 6.25 mg/kg/injection, schedule: Q02DX009 (ip), vehicle: water 117 % of control | [7] 100 % of control | dose: 12.5 mg/kg/injection, schedule: Q02DX009 (ip), vehicle: water 113 % of control | [8] 93 % of control | dose: 25.0 mg/kg/injection, schedule: Q02DX009 (ip), vehicle: water 113 % of control | dose: 40.0 mg/kg/injection, schedule: Q01DX009 (ip), vehicle: saline with Tween-80 105 % of control | dose: 50.0 mg/kg/injection, schedule: Q02DX009 (ip), vehicle: water 107 % of control | dose: 80.0 mg/kg/injection, schedule: Q01DX009 (ip), vehicle: saline with Tween-80 111 % of control | dose: 100.0 mg/kg/injection, schedule: Q02DX009 (ip), vehicle: water 107 % of control

COc1ccc(CC2C(=O)NC(C)C(=O)N(C)C3C(=O)N(C)C(Cc4ccc(O)c(c4)Oc4ccc(cc4)C3O)C(=O)NC(C)C(=O)NC(C)C(=O)N2C)cc1 (stereo not given)
inactive: dose: 0.12 mg/kg/injection, schedule: Q01DX009 (ip), vehicle: saline 110 % of control | dose: 0.25 mg/kg/injection, schedule: Q01DX009 (ip), vehicle: saline 113 % of control | dose: 0.5 mg/kg/injection, schedule: Q01DX009 (ip), vehicle: saline 113 % of control | dose: 2.0 mg/kg/injection, schedule: Q01DX009 (ip), vehicle: saline 103 % of control

CC(=O)c1cccc(NC2C(N)C(NC(=O)N(C)C)(C(C)O)C(C)(O)C2(O)COC(=O)c2c(C)cccc2O)c1 (stereo not given)
inactive: dose: 0.3 mg/kg/injection, schedule: Q01DX009 (ip), vehicle: saline 98 % of control | dose: 0.6 mg/kg/injection, schedule: Q01DX009 (ip), vehicle: saline 100 % of control | dose: 1.2 mg/kg/injection, schedule: Q01DX009 (ip), vehicle: saline 103 % of control

NNC(=O)c1ccncc1
inactive: dose: 8.0 mg/kg/injection, schedule: Q01DX009 (ip), vehicle: saline 101 % of control | dose: 16.0 mg/kg/injection, schedule: Q01DX009 (ip), vehicle: saline 111 % of control | dose: 64.0 mg/kg/injection, schedule: Q01DX009 (ip), vehicle: saline 107 % of control | dose: 128.0 mg/kg/injection, schedule: Q01DX009 (ip), vehicle: saline 108 % of control

CC(=O)OCC1OC(OC(C)=O)C(NC(=O)N(CCCl)N=O)C(OC(C)=O)C1OC(C)=O (stereo not given)
inactive: dose: 0.5 mg/kg/injection, schedule: Q01DX009 (ip), vehicle: saline with Tween-80 100 % of control and 111 % of control | dose: 1.0 mg/kg/injection, schedule: Q01DX009 (ip), vehicle: saline with Tween-80 92 % of control and 102 % of control and 109 % of control | dose: 2.0 mg/kg/injection, schedule: Q01DX009 (ip), vehicle: saline with Tween-80 94 % of control and 112 % of control | dose: 4.0 mg/kg/injection, schedule: Q01DX009 (ip), vehicle: saline with Tween-80 110 % of control and 118 % of control

CCOC(=O)C(C)(C)Oc1ccc(Cl)cc1
inactive: [4] 112 % of control | [5] 109 % of control | [6] 116 % of control | dose: 400.0 mg/kg/injection, schedule: Q01DX009 (ip), vehicle: saline with Tween-80 109 % of control

O=C(O)CCCc1ccc(N(CCCl)CCCl)cc1
inactive: dose: 1.5 mg/kg/injection, schedule: Q01DX009 (ip), vehicle: saline with Tween-80 103 % of control | dose: 3.0 mg/kg/injection, schedule: Q01DX009 (ip), vehicle: saline with Tween-80 101 % of control | dose: 6.0 mg/kg/injection, schedule: Q01DX009 (ip), vehicle: saline with Tween-80 88 % of control
